Assay: Validation in adult cohort of the VANISH trial randomized to hydrocortisone or placebo (n=97)
Type: in vivo, human
Conditions: adult VANISH subset; controlled for illness severity using the APACHE score; lower Z values
Description: The model was also tested using a publicly available transcriptomic data set from the Vasopressin vs. Norepinephrine as Initial Therapy for Septic Shock (VANISH) trial (9, 23). The VANISH trial compared the efficacy of vasopressin to norepinephrine as initial vasopressor therapy for septic shock among adults. Patients who reached a prespecified dose of either vasopressor were further randomized to receive hydrocortisone or placebo. Details of the procedures for assigning the cohort randomized to hydrocortisone or placebo to pediatric endotypes A or B were previously described (10, 15).
The findings above were further validated using a subset of adult subjects from the VANISH trial who were randomized to placebo or hydrocortisone, and for whom there existed publicly available transcriptomic data (n=97). […] The model supports that separation between groups treated with hydrocortisone and those treated with placebo occurs as the Z value decreases.

## C[C@]12CCC(=O)C=C1CC[C@@H]1[C@@H]2[C@@H](O)C[C@@]2(C)[C@H]1CC[C@]2(O)C(=O)CO [hydrocortisone]
  Odds of death at 28 days by hydrocortisone exposure and Z value: no hydrocortisone exposure and lower Z values tended to have lower odds of death at 28 days

Reference: US20240209445A1, “A CONTINUOUS METRIC TO MEASURE ENDOTYPE AND CORTICOSTEROID INTERACTION IN SEPTIC SHOCK” (CHILDREN'S HOSPITAL MEDICAL CENTER, priority 2021, published 2024)
